Tests used:
[1] = test system: Human pancreas cells at passage generation 47; experiment: Effect of amino acids on glucose stimulated insulin secretion (Example 20); format: cell-based; settings: for insulin secretion, +10 mM alanine / insulin secretion, +20 mM arginine: 90 minutes
Procedure: Human pancreas cells at passage generation 47, were prepared for the experiment as described in Example 17 above. The cells were incubated in 6 parts PDM plus 1 part DMSS medium at a concentration of 10^5 cells/ml, at various concentrations of glucose. Alanine (10 mM) or arginine(20 mM) were added, and the cells were incubated for 90 minutes, at which time samples were collected for assay of insulin content.

human follicular cells = experiment: Long-term hormone secretion of follicular sub-cultures with added testosterone substrate (Example 2); format: cell-based; set-up: dose or concentration left out as unconfirmed; settings: testosterone added as substrate for steroid production
Procedure: Cells in SC-2 were propagated and sub-cultured as above more than 20 times. […] Quantitative radioimmune assays (RIA) were employed as described in Radioassay Systems in Clinical Endocrinology, 1981, Ed. G. E. Abraham, {Basel: Marcel Dekker}, pp. 475-529. Progesterone, testosterone, estradiol, prolactin, thyroid stimulating hormone and luteinizing hormone were assayed by the Coat-a-Count procedure (Diagnostic Products Corp., Los Angeles). Follicle-stimulating hormone and B-hCG were assayed by the SERONO MATAclone procedure (Serono, Italy).
Conclusions: Using this method, human follicular cells were propagated in culture and transferred to serial subcultures which continued to proliferate and to secrete hormones.

[2] = test system: Ovarian follicular cells, lines 100B-OR-5A, 100B5-OR-B, 100B5-OR-D; experiment: 8-Br-cAMP / FSH stimulation of progesterone secretion by cultured follicular cells; format: cell-based, human; settings: 1 mM 8-Br-cAMP, 24 hours
Procedure: Cells in SC-2 were propagated and sub-cultured as above more than 20 times. […] Quantitative radioimmune assays (RIA) were employed as described in Radioassay Systems in Clinical Endocrinology, 1981, Ed. G. E. Abraham, {Basel: Marcel Dekker}, pp. 475-529. Progesterone, testosterone, estradiol, prolactin, thyroid stimulating hormone and luteinizing hormone were assayed by the Coat-a-Count procedure (Diagnostic Products Corp., Los Angeles).
Ovarian follicular cells, lines 100B-OR-5A, 100B5-OR-B, and 100B5-OR-D, were established in culture as described in Example 1 and maintained and sub-cultured as described in Example 2. From these lines were created sub-cultures designated 1, 2, and 3 respectively, which were employed in the stimulation protocol described below.

C[C@H](N)C(=O)O [alanine, Alanine]
increase of insulin secretion over that stimulated by glucose alone ([1]; 10 mM alanine at 2 mM glucose): 1.25 fold
insulin secretion stimulated over the intermediate level of secretion ([1]; 10 mM alanine together with 1 mM glucose, 1.5 hours): approximately 1.13 fold
insulin secretion, +10 mM alanine ([1]; total 1 mM glucose): 103
insulin secretion, +10 mM alanine ([1]; total 2 mM glucose): 135
insulin secretion, +10 mM alanine ([1]; total 6 mM glucose): 127
insulin secretion, +10 mM alanine ([1]; total 11 mM glucose): 117
insulin secretion, +10 mM alanine ([1]; total 16 mM glucose): 101
insulin secretion, +10 mM alanine ([1]; total 22 mM glucose): 87

C[C@]12CC[C@H]3[C@@H](CCC4=CC(=O)CC[C@@]43C)[C@@H]1CC[C@@H]2O [testosterone]
time subcultures continued to secrete hormones after first placed in culture (human follicular cells): ≤ 16 months

Nc1ncnc2c1nc(Br)n2[C@@H]1O[C@@H]2COP(=O)(O)O[C@H]2[C@H]1O [8-Br-cAMP]
Prog ([2]; culture 1): 24.5 ng/10^6 cells
Prog ([2]; culture 2): 12.9 ng/10^6 cells
Prog ([2]; culture 3): 20.8 ng/10^6 cells

N=C(N)NCCC[C@H](N)C(=O)O [arginine]
insulin secretion, +20 mM arginine ([1]; total 1 mM glucose): 128
insulin secretion, +20 mM arginine ([1]; total 2 mM glucose): 134
insulin secretion, +20 mM arginine ([1]; total 6 mM glucose): 105
insulin secretion, +20 mM arginine ([1]; total 11 mM glucose): 93
insulin secretion, +20 mM arginine ([1]; total 16 mM glucose): 99
insulin secretion, +20 mM arginine ([1]; total 22 mM glucose): 94

From patent publication US6372493B1, “Hormone-secreting cells maintained in long-term culture” (Pacific Biomedical Research, Inc. [Cell Mart, Inc.], priority 1991, dated 2002)
